A short description of assay [1]: Tested for binding affinity against delta2 opioid receptor using [3H]DSLET as a radioligand in the guinea pig brain membranes.
Assay [2] in a line: Tested for binding affinity against delta1 opioid receptor using [3H]-DPDPE as a radioligand in the guinea pig brain membranes.

For orientation: Ki means a measure of affinity in units of concentration, obtained from inhibition or displacement. As to `O=C(CBr)Nc1cccc(Cn2c3c(c4ccccc42)C[C@@]2(O)C4Cc5ccc(O)c6c5C2(CCN4CC2CC2)[C@H]3O6)c1` (stereo partly drawn) [1N-{3-[22-cyclopropylmethyl-2,16-dihydroxy-14-oxa-11,22-diazaheptacyclo[13.9.1.01,13.02,21.04,12.05,10.019,25]pentacosa-4(12),5(10),6,8,15,17,19(25)-heptaen-11-ylmethyl]phenyl}-2-bromoacetamide], the inhibition constant Ki in assay [1] is 0.038 nM; in assay [2] it was 0.019 nM.

`Oc1ccc2c3c1O[C@H]1c4c(c5ccccc5n4Cc4ccccc4N=C=S)C[C@@]4(O)C(C2)N(CC2CC2)CCC314` (stereo partly drawn) [22-cyclopropylmethyl-11-(2-isothiocyanatobenzyl)-14-oxa-11,22-diazaheptacyclo[13.9.1.01,13.02,21.04,12.05,10.019,25]pentacosa-4(12),5(10),6,8,15,17,19(25)-heptaene-2,16-diol]: the Ki in assay [1] came out at 3.6 nM; in assay [2], 2 nM.

With `Oc1ccc2c3c1O[C@H]1c4c(c5ccccc5n4Cc4cccc(N=C=S)c4)C[C@@]4(O)C(C2)N(CC2CC2)CCC314` (stereo partly drawn) [22-cyclopropylmethyl-11-(3-isothiocyanatobenzyl)-14-oxa-11,22-diazaheptacyclo[13.9.1.01,13.02,21.04,12.05,10.019,25]pentacosa-4(12),5(10),6,8,15,17,19(25)-heptaene-2,16-diol], the values for the inhibitory constant (Ki) in assay [1] and in assay [2] were 7 nM and 4.2 nM, respectively.

In the case of `Oc1ccc2c3c1O[C@H]1c4c(c5ccccc5n4Cc4ccc(N=C=S)cc4)C[C@@]4(O)C(C2)N(CC2CC2)CCC314` (stereo partly drawn) [22-cyclopropylmethyl-11-(4-isothiocyanatobenzyl)-14-oxa-11,22-diazaheptacyclo[13.9.1.01,13.02,21.04,12.05,10.019,25]pentacosa-4(12),5(10),6,8,15,17,19(25)-heptaene-2,16-diol], the Ki in assay [1] stood at 5 nM; in assay [2], 5.3 nM.

The values above are taken from BindingDB's records for doi:10.1021/jm00008a012 (University of Minnesota, 1995).
